Assay results: US10851372B2, “Exosome packaging of nucleic acids” (University of Ottawa, priority 2015, dated 2020)

Experiments:
MDA-MB-231 = test: Exosomal enrichment of endogenous miRNAs, RT-qPCR in exosomes vs exosome-producing cells; type: cell-based, human
Source text: Exosomes from breast epithelial cell line (MDA-MB-231) or mouse embryonic fibroblasts (MEF) were purified and multiple techniques were used to confirm the identity and purity of exosome preparations (see FIG. 1A-D). Dynamic light scattering and Nanosight particle tracking was used to ensure that exosomes purified were highly pure populations of particles with diameter of 100 nm, as expected for exosomes. […] RNA was isolated from these exosomes and the cells that produced them, and RT-qPCR was used to characterize the relative abundance of miRNAs.
(§1) Firstly, enrichment of endogenously expressed miR-451 in exosomes was compared to other endogenously expressed microRNAs (miR-16, let-7a).
(§2) Exosomes were enriched by differential centrifugation as previously described (Thery, 2006, Curr Protoc Cell Biol, Chapter 3, Unit 3 22). Briefly, MEF or MDA-MB-231 cells were cultured in media containing FBS depleted of exosomes by centrifugation at 100 000 g for 16 h (Thery, 2006, Curr Protoc Cell Biol, Chapter 3, Unit 3 22). To purify exosomes supernatant from cell cultures was centrifuged at 400 g (7 min), 2000 g (10 min) and 10 000 g (30 min, SW32 rotor). At each step the supernatant was recovered. After centrifugation at 100 000 g (1 h 10 min, SW32 rotor) the supernatant was removed and the pellet was resuspended. The pellet was washed in PBS by a final centrifugation at 100 000 g (20 min, TLA100.3 rotor). The exosome-enriched pellet was re-suspended in PBS for further analyses.
(§3) RT-qPCR was performed with the MiScript II Reverse Transcriptase system (Qiagen) and GoTaq® qPCR Master Mix (Promega A6002) using primers allowing amplification of the DNA produced in the reverse transcriptase step. Results were normalized to the ubiquitous miRNA let-7a and miR-16.

[1] = tested on: exosomes from multiple cell types and sources; conditions: plasma, serum, mast cells, glioblastoma, B cells, cardiac progenitor cells, MSC; cited from earlier work
MEF = test: Exosomal enrichment of endogenous miR-451, RT-qPCR in exosomes vs exosome-producing cells; type: cell-based, mouse
Description: as §1, §2
RT-qPCR was performed with the MiScript II Reverse Transcriptase system (Qiagen) and GoTaq® qPCR Master Mix (Promega A6002) using primers allowing amplification of the DNA produced in the reverse transcriptase step. […]
RT-qPCR was performed with (Promega A6002) or Quantitect qPCR master mix (Qiagen) using primers allowing amplification of the DNA produced in the reverse transcriptase step using the following primers mir-451: […] […]

N2A = test: as above; type: cell-based, mouse; conditions: exosome-depleted or serum-free media
Description: as §1, §3
(§4) RT-qPCR was performed with (Promega A6002) or Quantitect qPCR master mix (Qiagen) using primers allowing amplification of the DNA produced in the reverse transcriptase step using the following primers mir-451: […] (SEQ ID NO: 14), let-7a: […] (SEQ ID NO: 15), mir-16: […] (SEQ ID NO: 16).

C8S = test: as above; type: cell-based, mouse; conditions: exosome-depleted or serum-free media
Description: as §1, §3, §4

C8D1A = test: as above; type: cell-based, mouse; conditions: exosome-depleted or serum-free media
Description: as §1, §3, §4

NSC34 = test: as above; type: cell-based, mouse; conditions: exosome-depleted or serum-free media
Description: as §1, §3, §4

BV2 = test: as above; type: cell-based, mouse; conditions: exosome-depleted or serum-free media
Description: as §1, §3, §4

C8D30 = test: as above; type: cell-based, mouse; conditions: exosome-depleted or serum-free media
Description: as §1, §3, §4

MN1 = test: as above; type: cell-based, mouse; conditions: exosome-depleted or serum-free media
Description: as §1, §3, §4

Macrophage = test: as above; type: cell-based, mouse; conditions: exosome-depleted or serum-free media
Description: as §1, §3, §4

JAWSII = test: as above; type: cell-based, mouse; conditions: exosome-depleted or serum-free media
Description: as §1, §3, §4

MSC Line = test: as above; type: cell-based; conditions: exosome-depleted or serum-free media
Description: as §1, §3, §4

ESC = test: as above; type: cell-based, human
Description: as §1, §3, §4

Primary MSC = test: as above; type: cell-based, human; conditions: exosome-depleted or serum-free media
Description: as §1, §3, §4

[2] = tested on: mouse embryonic fibroblast cells; test: Exosomal enrichment of synthetic RNA constructs mimicking pre-miR-451 processing stages (RT-qPCR); type: cell-based; conditions: synthetic RNA transfected, FIG. 9(E)
Description: Synthetic RNA constructs mimicking WT pre-miR-451 at various processing stages were tested for exosomal enrichment. Constructs were transfected into cells, and exosome enrichment was measured by RT-qPCR after exosome purification by differential centrifugation. miR-451 derived mature siRNA was normalized to levels of let-7a and miR-16 in exosomes vs. cells. Constructs tested include WT pre-mIR-451 construct following Drosha processing (A), an Ago2-cleaved version of the construct (B), and a mature 22 nt miR-451 (post exonuclease activity, having a 5′ targeting portion including a portion of the loop region) (C). For comparison, a standard 21 nt dsRNA siRNA with 3′ overhangs (D) was also tested. Exosomal enrichment results are shown in (E);
Constructs were accordingly designed which mimic WT pre-miR-451 at various processing stages, and tested for exosomal enrichment. Constructs tested are graphically depicted in FIG. 9. […]
RNAs corresponding to 42 nt pre-miR-451 with an inserted GFP siRNA, or the same construct up to the Ago2 cleavage site, or the fully mature form of miR-451 produced GFP siRNA (single-stranded 22 nt RNA), or double-stranded GFP siRNA with 2 nt 3′ overhangs were synthesized by IDT. […] Two days later exosomes were purified and levels of mature GFP siRNA in exosomes was quantified by RT-qPCR.

[3] = Effect of drugs on exosome number and miR-451 enrichment in exosomes; type: cell-based; conditions: treatment of exosome-producing cells
Description: A variety of cellular factors which may affect nucleic acid construct packaging in exosomes using methods as described herein were studied. Specifically, effects of over-expression of mutant Ras, mutant Myc, wild-type Ago2, and siRNA depletion of Translin were studied. […] The effect of several drugs was also tested, such as mTOR inhibitors and lysosomal/autophagy inhibitors which are clinically used. […] Lysosomal/autophagy inhibitors tested include Bafilomycin A1, concanamycin, and NAADP-AM.

MEF cells = test: Exosomal enrichment of miRNA expressed from transfected pre-miR-451 structural mimic plasmids (RT-qPCR); type: cell-based, mouse; conditions: for Effect of pre-miR-451 backbone on levels of inserted miRNA in cells: MEF cells transfected with plasmids, FIG. 4
Description: (§5) (C) The ratio of endogenous miRNAs (let-7a, miR-106, miR-155) was measured in exosomes and exosome-producing cells (MEF, mouse embryonic fibroblasts) by RT-qPCR. y-axis is log 10. miR-451 is not endogenously expressed in these cells.
MEF cells were transfected with pre-miR-451 expressing plasmids (“technology”) containing miR-199, miR-155 or miR-106, and exosomes were purified and RT-qPCR was performed on exosomes and cells.
(§6) Plasmids expressing pre-miR-451, or pre-miR-451 structural mimics including the sequences of other miRNA, were transfected into the two cell types. Expressing miR-106 or miR-155 in the pre-miR-451 structural mimic caused them to be enriched up to 39-fold in exosomes produced by either MEF or breast cancer cells (see FIG. 3B,D). […] In MEF cells, endogenous miR-451 was undetectable in either cells or exosomes (see FIG. 3C).
(§7) Cells were transfected with plasmids using Lipofectamine 2000 according to the manufacturer's instructions. After four hours cells were washed in PBS and incubated with DMEM containing 10% FBS depleted of exosomes by ultracentrifugation according to Thery et al. (2006). After 24 h media was harvested and exosomes were purified by differential ultracentrifugation. RNA was purified from exosomes and exosome-producing cells using Trizol according to the manufacturer's instructions.
as §2, with “The exosome-enriched pellet was re-suspended in PBS for further analyses.” left out

[4] = tested on: Ago2 knockout mouse embryonic fibroblasts; test: Effect of Ago2 on exosomal enrichment of siRNA from pre-miR-451 structural mimic (qRT-PCR); type: cell-based; conditions: compared to wild-type cells or Ago2 knockout cells rescued with wild-type or catalytically dead Ago2, FIG. 10
Description: (§8) In these experiments, plasmids including siRNA sequences targeting GFP or TctR integrated in a pre-miR-451 structural mimic were transfected into cells, and the levels of GFP or TetR siRNA in exosomes vs cells (vs. let-7a and miR-16 in exosomes/cells) was measured by qRT-PCR two to three days later. Enrichment of miR-451 derived sequences in exosomes was normalized to 1 for wild-type exosomes.
Testing of the effect of Ago2 on enrichment of siRNA-containing constructs in exosomes using pre-miR-451 structural mimics as described herein was also performed.
as §8, with “TetR” for “TctR”

MDA-MB-231 cells = test: Exosomal enrichment of miRNA expressed from transfected pre-miR-451 structural mimic plasmids (RT-qPCR); type: cell-based, human; conditions: FIG. 3B
Description: as §5, §6, §7
Exosomes were enriched by differential centrifugation as previously described (Thery, 2006, Curr Protoc Cell Biol, Chapter 3, Unit 3 22). […]

Molecule: miR-451: endogenous miRNA strongly enriched in exosomes; generated from pre-miR-451 by Ago2 cleavage, Dicer-independent (AAACCGUUACCAUUACUGAGUUU; expressed or natural sequence; listed as Homo Sapiens)
- Ratio of endogenous miRNA in exosomes and exosome-producing cells (in words) (MDA-MB-231; MDA-MB-231, FIG. 3A): highly enriched in exosomes
- Enrichment of miR-451 in exosomes/cell (vs. miR-16 and let-7a) (MDA-MB-231; MDA, exosome-depleted or serum-free media): 5600
- Enrichment of miR-451 in exosomes compared to its levels in cells, compared to other miRNA (MDA-MB-231; endogenous miRNA, MDA-MB-231, FIG. 3A): up to 308 fold
- Enrichment of miR-451 in exosomes in several studies [1]: 10-10000 fold
- Endogenous miR-451 in cells or exosomes (MEF; MEF cells, FIG. 3C): undetectable
- Enrichment of miR-451 in exosomes/cell (vs. miR-16 and let-7a) (MEF; MEF, exosome-depleted or serum-free media): 68800
- Enrichment of miR-451 in exosomes/cell (vs. miR-16 and let-7a) (N2A): 4119
- Enrichment of miR-451 in exosomes/cell (vs. miR-16 and let-7a) (C8S): 383
- Enrichment of miR-451 in exosomes/cell (vs. miR-16 and let-7a) (C8D1A): 40
- Enrichment of miR-451 in exosomes/cell (vs. miR-16 and let-7a) (NSC34): 73
- Enrichment of miR-451 in exosomes/cell (vs. miR-16 and let-7a) (BV2): 1887
- Enrichment of miR-451 in exosomes/cell (vs. miR-16 and let-7a) (C8D30): 22
- Enrichment of miR-451 in exosomes/cell (vs. miR-16 and let-7a) (MN1): 44
- Enrichment of miR-451 in exosomes/cell (vs. miR-16 and let-7a) (Macrophage): 1280
- Enrichment of miR-451 in exosomes/cell (vs. miR-16 and let-7a) (JAWSII): 23642
- Enrichment of miR-451 in exosomes/cell (vs. miR-16 and let-7a) (MSC Line): 5293
- Enrichment of miR-451 in exosomes/cell (vs. miR-16 and let-7a) (ESC; ESC, exosome-depleted or serum-free media): 3
- Enrichment of miR-451 in exosomes (in words) (ESC; human embryonic stem cells, H9 line, FIG. 7): strongly enriched
- Enrichment of miR-451 in exosomes/cell (vs. miR-16 and let-7a) (Primary MSC): 702

Molecule: AUGAACUUCAGGGUCAGCUUGC (listed as RNA, chemistry not fully specified) [fully mature ss, fully mature form of miR-451 produced GFP siRNA, single-stranded 22 nt RNA]
- Exosomal enrichment among constructs mimicking processing stages (normalized to let-7a and miR-16, exosomes vs. cells) [2]: most strongly exosome-enriched construct
- Exosomal enrichment compared with standard dsRNA siRNA with 3′ overhangs [2]: higher than dsRNA

Molecule: C/C=C/[C@H]1O[C@@](O)([C@@H](C)[C@H](O)[C@H](C)[C@H]2OC(=O)/C(OC)=C/C(C)=C/[C@@H](C)[C@@H](O)[C@@H](CC)[C@@H](O)[C@H](C)C/C(C)=C/C=C/[C@@H]2OC)C[C@@H](O)[C@@H]1C [concanamycin]
- Effect on exosome number [3]: increased exosome number

Molecule: NAADP-AM
- Effect on exosome number [3]: increased exosome number

Molecule: CO/C1=C\C(C)=C\[C@@H](C)[C@@H](O)[C@@H](C)C/C(C)=C/C=C/[C@H](OC)[C@@H]([C@@H](C)[C@@H](O)[C@H](C)[C@@]2(O)C[C@@H](O)[C@H](C)[C@@H](C(C)C)O2)OC1=O [Bafilomycin A1]
- Effect on exosome number [3]: increased exosome number

B1: miR-199 in the pre-miR-451 structural mimic: pre-miR-451 structural mimic comprising the miR-199 targeting sequence, plasmid-expressed, SEQ ID NO: 8 (nucleic acid)
chain: CUUGGGAAUGGCAAGGACAGUAGUCUGCACAUUGGUUAAUGUGCAGACUACUGUCUCUUGCUAUACCCAGA
- Effect of pre-miR-451 backbone on levels of inserted miRNA in cells (MEF cells): neglible effects

B2: siRNA targeting TetR inserted in a pre-miR-451 structural mimic: pre-miR-451 structural mimic targeting TetR, SEQ ID NO: 20 (nucleic acid)
chain: CUUGGGAAUGGCAAGGUCUUGAUCUUCCAAUACGCAACCGUAUUGGAAGAUCAAGAUCUUGCUAUACCCAGA
modifications: expressed or natural sequence
- Enrichment of siRNA in exosomes in Ago2 knockout cells [4]: still enriched in exosomes

B3: miR-106 in the pre-miR-451 structural mimic: pre-miR-451 structural mimic comprising the miR-106 targeting sequence, plasmid-expressed, SEQ ID NO: 7 (nucleic acid)
chain: CUUGGGAAUGGCAAGGAAAAGUGCUUACAGUGCAGGUAUGCACUGUAAGCACUUUCUCUUGCUAUACCCAGA
- Effect of pre-miR-451 backbone on levels of inserted miRNA in cells (MEF cells): neglible effects
- Enrichment in exosomes of miRNA inserted in the pre-miR-451 backbone (in words) (MEF cells; MEF cells, FIG. 3D): highly enriched
- Enrichment in exosomes of miRNA inserted in the pre-miR-451 backbone (in words) (MDA-MB-231 cells): comparable with miR-451
